Source: US20190352341A1, “MODIFIED PEPTIDES AND THEIR USE FOR TREATING SYSTEMIC LUPUS ERYTHEMATOSUS” (IMMUPHARMA FRANCE SA, priority 2018, published 2019)
Where “and” joins values, the source holds several entries; their conditions need not be identical. Equal values may be shown once. Numbered stars: 1 amine (or outer) side, 2 acyl side, 3 side chain; on linkers, the order of the positions; unused ones are H or OH. Square brackets hold non-standard residues; d marks the D form. Peptide text beside a SMILES is read from it. ξ: configuration not given here. X1 = CSCC[C@H](NC(=N)[C@H](Cc1c[nH]cn1)N[*:1])C(=O)[*:2]; pS = N[C@@H](COP(=O)(O)O)C(=O)O; Ile(3ξ) = CCC(C)[C@H](N)C(=O)O

Assays:
[1] = test system: Balb/c mice; assay: 15-day ovalbumin-induced airway hypereosinophilia model, BAL cells; format: in vivo, mouse; design: Eosinophils / Neutrophils / T cells / B cells: unit not given here; conditions: for B cells / Eosinophils / Macrophages / Neutrophils / T cells / Total cells: BAL
Protocol: The P140 phosphopeptide was solubilized in sterile water (Braun) and 10× concentrate sterile saline was added to adjust osmolarity to 300 mosm. Osmolarity was controlled with a micro osmometer (Loser, type 15) and validated (302 mosm).
The P140 phosphopeptide was used in vivo at the dose of 4 mg/kg by intranasal (i.n.) and intravenous (i.v.) routes. Control animals received equivalent volumes (1 ml/kg for i.n. and 2 ml/kg for i.v.) of saline (Table 6).
Nine-week-old male Balb/c mice were sensitized by intraperitoneal (i.p.) injections of a mixture containing 50 μg OVA (Sigma-Aldrich) and 2 mg alum (Sigma-Aldrich) in 0.1 ml saline. Mice were challenged by i.n. administration of 25 μl of OVA on day 5, then 25 μl of OVA and/or saline on day 12, 13 and 14. Mice were treated by i.v. injection (2 ml/kg) or i.n. administration (1 ml/kg) of P140 or solvent on day 9 (See FIG. 12).
[…] Performing Bronchoalveolar Lavage in the Mouse. Curr Protoc Mouse Biol 2:167-175). Mice were anaesthetized IP (Ketamine 150 mg/kg-Xylasine 10 mg/kg). Blood was collected from the heart, centrifuged at 10,000 g for 2 min and serum stored at −20° C. After semi-excision of the trachea, a plastic cannula was inserted, and airspace washed with 0.5 ml of 0.9% NaCl injected with a 1 ml syringe. This procedure was performed 10 times. The initial concentrated supernatant of the 2 first lavages (volume=2×0.5 ml administered, ˜0.5 ml recovered) was collected for cytokine measurements. The remaining BAL fluid was centrifuged (300 g for 5 min, 4° C.), and cell pellets pooled. The cell pellet was suspended in 500 μl of 0.9% NaCl and used for total cell counts evaluated on a Muse® Cell Analyser. Differential cell counts were assessed by flow cytometry (LSRII® cytometer, BD Bioscience). BAL cells were added with FCblock (0.5 μl, 553142, BD Bioscience) in a black microplate, incubated for 20 min at room temperature. Then, marker antibodies were added: CD11c-FITC (557400, BD bioscience), Gr-1-Pe-eFluor610 (61-5931-82, eBioscience), CD11b-APC-Cy7 (557657, BD bioscience), CD45-AlexaFluor700 (103128, BioLegend), CD3-BV605 (564009, BD bioscience), CD19-PE-Cy7 (552854, BD bioscience). Antibodies were incubated with BAL cells for 30 min at room temperature before DAPI (5 μl, BD bioscience) addition, and flow cytometry was performed immediately.
Data are presented as means±SEM. Differences between groups were tested for statistical significance using one-way ANOVA followed by Tukey's post-test. For statistical analysis, control groups 1, 2 and 3 were pooled.

[2] = test system: C57BL/6 mice; assay: K/B×N serum transfer mouse model of rheumatoid arthritis; format: in vivo
Protocol: The TCR transgenic mice expressing the KRN and the MHC class II A^g7 molecule (K/B×N mice) have developed a severe inflammatory arthritis. The administration of serum of these mice to healthy recipient mice causes inflammatory arthritis over a period of about 15 days with a peak ignition around day 7 post-injection.
Two mouse serum administrations from K/B×N were performed (day 0 and day 2). The injection of serum (100 μl/mouse) is performed by intra-peritoneal (ip) injection in mice C57BL/6 (or B6) for 8 weeks (n=10); untreated mouse (n=10).
The P140 peptide (100 μg/100 μl; iv retro-orbital) was administered as follows:
Curative treatment: Injection at day 1 and day 4, to guide the peak of inflammatory disease. Preventive treatment: Injection at day −7 and day −2. Bleeding S0 (at day 0) is followed by bloodletting conducted every six days to dispose of serum. The study ends when inflammation has returned to its basal level, to around day 20 (see FIG. 21).
During the peak of inflammation, every day the animals are evaluated, and swelling score of articulation is established. It is ranged from 0 to 4 and based on a joint observation of the animal. In practice, this score is given for each leg (4 values) and these values are added together to get a general score that ranges from 0 to 16 (FIG. 22).

[3] = OVA challenge, P140-IN 4 mg/kg day 9, individual mice NL415-2_6 to _20
[4] = OVA challenge, P140-IN, 4 mg/kg day 9, individual mice NL415-2_12 to _22
[5] = saline challenge, P140-IN 4 mg/kg day 9, individual mice NL415-2_2, _8
[6] = saline challenge, P140-IN, 4 mg/kg day 9, individual mice NL415-2_4, _15
[7] = i.v. 4 mg/kg, OVA-challenged mice

SMILES: CCC(C)[C@H](NC(=O)[C@H](Cc1ccccc1)NC(=O)[C@H](C)NC(=O)[C@H](Cc1ccc(O)cc1)NC(=O)CNC(=O)[C@H](CCCNC(=N)N)NC(=O)[C@@H]1CCCN1C(=O)[C@H](CCCCN)NC(=O)CNC(=O)[C@H](COP(=O)(O)O)NC(=O)[C@H](CCCNC(=N)N)NC(=O)[C@H](CCCCN)NC(=O)[C@H](CO)NC(=O)[C@H](Cc1ccc(O)cc1)NC(=O)[C@@H](NC(=O)[C@H](CCSC)NC(=N)[C@H](Cc1c[nH]cn1)NC(=O)[C@@H](NC(=O)[C@@H](N)CCCNC(=N)N)C(C)CC)C(C)C)C(=O)N[C@@H](CCC(=O)O)C(=O)N[C@@H](Cc1ccc(O)cc1)C(=O)O (stereo partly drawn) [Compound P140] (H-R[Ile(3ξ)][X1]VYSKR[pS]GKPRGYAF[Ile(3ξ)]EY-OH)
- B cells [1, 3]: 25 606 and 32 251 and 26 562 and 23 383 and 33 156 and 13 236
- Eosinophils [1, 3]: 490 306 and 497 948 and 737 671 and 839 841 and 792 249 and 615 171
- Macrophages [1, 3]: 271 110 and 322 340 and 247 391 and 538 954 and 436 210 and 286 509
- Neutrophils [1, 3]: 57 542 and 60 787 and 62 354 and 95 173 and 47 346 and 65 366
- T cells [1, 3]: 44 036 and 61 800 and 73 159 and 118 360 and 101 951 and 61 293
- Total cells [1, 3]: 862 995 and 942 875 and 1 120 576 and 1 592 328 and 1 377 755 and 1 028 339
- B cells [1, 4]: 10 219 and 15 209 and 14 027 and 17 417 and 11 003 and 10 922
- Eosinophils [1, 4]: 425 928 and 272 763 and 473 105 and 470 027 and 327 186 and 429 469
- Macrophages [1, 4]: 439 265 and 442 055 and 244 523 and 293 070 and 342 134 and 379 565
- Neutrophils [1, 4]: 42 783 and 21 442 and 59 616 and 76 867 and 40 275 and 31 756
- T cells [1, 4]: 41 744 and 43 881 and 32 677 and 55 502 and 28 857 and 45 030
- Total cells [1, 4]: 949 720 and 780 142 and 809 921 and 895 467 and 738 452 and 885 821
- B cells [1, 5]: 112 and 242
- Eosinophils [1, 5]: 168 and 103
- Macrophages [1, 5]: 388 102 and 434 029
- Neutrophils [1, 5]: 56 and 61
- T cells [1, 5]: 4 135 and 4 180
- Total cells [1, 5]: 392 461 and 438 573
- B cells [1, 6]: 70 and 266
- Eosinophils [1, 6]: 110 and 166
- Macrophages [1, 6]: 335 658 and 335 200
- Neutrophils [1, 6]: 259 and 133
- T cells [1, 6]: 5311 and 4 790
- Total cells [1, 6]: 341 738 and 340 389
- Number of cells recovered in BAL fluid as compared to vehicle (saline) ([1]; i.n. or i.v., control mice challenged with saline): little effect per se
- Inflammatory cell recruitment in BAL ([1]; i.n. route, OVA-challenged mice): little effect
- B cells recruitment in BAL, change vs OVA group [1, 7]: −42%
- Eosinophil recruitment in BAL, change vs OVA group [1, 7]: −50%
- T cells recruitment in BAL, change vs OVA group [1, 7]: −66%
- Neutrophils recruitment in BAL, change vs OVA group ([1]; i.v. 4 mg/kg, OVA-challenged mice, not significant): −38%
- Weight loss ([2]; curative protocol (P140 day 1 and day 4), from day 2): 15%
- Weight gain ([2]; curative protocol, between day 5 and the end of the study, controls 5%): 20%
- Inflammation score per leg, maximum ([2]; curative protocol, rear legs): ~1.5
- Weight loss ([2]; preventive protocol (P140 day −7 and day −2), day 1 to day 7, controls 10%): 5%
- Increase in size of joints, right back legs ([2]; preventive protocol, day 0 to day 7, controls about 22%): around 12%
- Increase in size of the joint, left hind paws ([2]; preventive protocol, day 0 to day 7, controls about 30%): about 15%
- Increase in size of articulation, left front leg ([2]; preventive protocol, controls 45%): 20%
- Swelling in the joints of right front leg ([2]; preventive protocol, controls nearly 45%): +20%
- General inflammation score, maximum ([2]; preventive protocol, sum of four legs, controls around 7 (printed day 7)): ≤ 5
